Read-outs that look alike come from different tables or passages of the source.
Experiments:
[1] = Mouse plasma pharmacokinetics; assay type: in vivo; conditions: for AUC(0-t): read-out: AUC0–24
Description: Male C57BL/6 mice (18–25 g) were supplied and housed under controlled temperature and humidity at the Vernon Jansen Unit of the University of Auckland. The mice had access to a pelleted diet and water ad libitum. All animal experimentation followed protocols approved by the University of Auckland Animal Ethics Committee (approval #001781). Dosing solutions were prepared in 20% hydroxypropyl-β-cyclodextrin (Sigma-Aldrich). The mice received one to three doses by intraperitoneal route and were euthanised at predetermined time points (n = 3 mice per time point at 0.083, 0.25, 0.5, 1, 2, 4, 6, and 24 h for 10 mg/kg 1 and 7; 0.5, 1, 2, 6, and 24 h for 80 and 160 mg/kg 1; and 1, 6, and 24 h for 120 mg/kg 1). Blood samples (∼300 μL) were obtained through cardiac bleed and collected in ice-cold K2-EDTA tubes (BD, Franklin Lakes, NJ). Plasma was separated by centrifugation at 6500 rpm for 5 min and stored at −80 °C. On the day of analysis, plasma samples were thawed on ice and the analytes were extracted by mixing 10 μL of aliquots with four volumes of ice-cold acetonitrile/methanol (1:1 v/v) containing internal standard. The samples were kept on ice for 10 min to ensure complete protein precipitation, vortexed for 2 min, and centrifuged at 13 000 rpm for 5 min at room temperature. The clear supernatant was then diluted (1:1 v/v) with 40 μL of 0.01% formic acid in Milli-Q water prior to analysis by LC-MS/MS.
Compound concentration in biological matrices was measured by LC-MS/MS using a 6410b triple-quadrupole mass spectrometer (Agilent, Santa Clara) equipped with a multimode ionization source. The optimized mass detector conditions, namely, ionization polarity, precursor product ions, fragmentor voltage, and collision energy, were manually determined by infusing a 5 μM solution of the pure compound into the ion source. Chromatographic separation was achieved using a Zorbax SB-C18, 50 × 2.1 mm^2, 5 μm column (Agilent), and an Agilent 1100 series HPLC system. The mobile phase used was (A) 0.01% formic acid in Milli-Q water and (B) 80% acetonitrile containing 0.01% formic acid in ultrapure water at a flow rate of 0.6 mL/min. A gradient elution was used over 5 min, and the flow rate was maintained at 0.6 mL/min throughout the gradient. The column oven temperature and the autosampler temperature were set to 35 and 4 °C, respectively. […] The instrument multimode source parameters were set as follows: gas temperature, 325 °C; vaporizer, 250 °C; gas flow, 5 L/min; and nebulizer, 45 psi. The ion spray voltage was set at 3000 V. Detection of the compounds was carried out in multiple reaction monitoring mode by monitoring the m/z transitions of precursor to selective product ion. For each compound, fragmentor voltage and collision energy were optimized to achieve maximum abundance. Quadrupoles Q1 and Q3 were set to unit resolution.
Test samples were diluted up to 100-fold in blank plasma as necessary and quantitated against a calibration curve of known analyte concentrations ranging from 3 nM to 30 μM in an appropriate matrix and quality controls at 0.03, 0.3, 3, and 30 μM. Pharmacokinetic parameters were evaluated using noncompartmental analysis and pharmacokinetic simulations using one-compartment analysis on Phoenix WinNonlin version 6.2 (Certara, Princeton, NJ). Multiple-dose simulations were generated from parameters derived from single-dose simulations.

[2] = system: perforin-dependent cytotoxicity of KHYG-1 NK cells on K562 target cells; test: KHYG-1 cytotoxicity assay (51Cr-labeled K562 target cells); assay type: cell-based; conditions: Homo sapiens
Description: (Table 1). […] An IC90 was used rather than an IC50 as we anticipated that elevated suppression of perforin activity is likely required to preserve the transplanted bone marrow stem cells in vivo.
The inhibition of the cytotoxic activity of KHYG-1 NK cells on K562 target cells was determined as described previously.[14] Briefly, compounds were added to KHYG-1 cells at 6–7 concentrations ranging from 20 μM to 312.5 nM in 2-fold dilutions in RPMI medium (Thermo Fisher Scientific, Waltham, MA) supplemented with 0.1% bovine serum albumin (BSA; Sigma-Aldrich, St. Louis, MO) for 20 min. ^51Cr-labeled K562 leukemia target cells were added to KHYG-1 cells at an effector/target ratio of 2:1 and incubated at 37 °C for 4 h. ^51Cr release was assayed using a Harvesting Press (Skatron Instruments, Lier, Norway), and radioactivity was estimated on a Wallac Wizard 1470 Automatic γ counter (Turku, Finland). The IC90 values were calculated by fitting a four-parameter logistic sigmoidal dose–response curve to the data using Prism version 8 (GraphPad, San Diego, CA). Each IC90 value represents the mean of at least three independent experiments, where six to seven concentrations were tested in triplicate for each compound.

[3] = male, mouse, ip, 80 mg/kg single i.p. dose, C57BL/6 mice, plasma
[4] = male, mouse, ip, 120 mg/kg single i.p. dose, C57BL/6 mice, plasma
[5] = male, mouse, ip, 160 mg/kg single i.p. dose, C57BL/6 mice, plasma
[6] = concentration inhibiting 90% of perforin-dependent cytotoxicity, K562 targets, effector/target 2:1, 4 h, RPMI 0.1% BSA, read-out: KHYG-1 IC90
[7] = male, C57BL/6, ip, mouse plasma, 10 mg/kg intraperitoneal

Compound | Cmax ([1]; 10 mg/kg single i.p. dose, C57BL/6 mice, plasma) [µM] | half-life ([1]; male, C57BL/6, mouse, plasma, intraperitoneal, across the dose levels 160, 120, 80 and 10 mg/kg, read-out: elimination half-life) [h] | AUC(0-t) ([1]; male, mouse, ip, 10 mg/kg single i.p. dose, C57BL/6 mice, plasma) [µM·h] | half-life ([1]; male, mouse, ip, 10 mg/kg single i.p. dose, C57BL/6 mice, plasma, read-out: T1/2 (converted)) [h] | Cmax [1, 3] [µM] | AUC(0-t) [1, 3] [µM·h] | half-life ([1]; male, mouse, ip, 80 mg/kg single i.p. dose, C57BL/6 mice, plasma, read-out: T1/2 (converted)) [h] | Cmax [1, 4] [µM] | AUC(0-t) [1, 4] [µM·h] | half-life ([1]; male, mouse, ip, 120 mg/kg single i.p. dose, C57BL/6 mice, plasma, read-out: T1/2 (converted)) [h] | Cmax [1, 5] [µM] | AUC(0-t) [1, 5] [µM·h] | half-life ([1]; male, mouse, ip, 160 mg/kg single i.p. dose, C57BL/6 mice, plasma, read-out: T1/2 (converted)) [h] | IC90 ([2]; KHYG-1, estimated from IC90 5.37 μM and media free fraction 0.144, read-out: unbound in vitro IC90 in KHYG-1 cells) [µM] | IC90 [2, 6] [µM] | AUC [1, 7] [µM·h] | Cmax [1, 7] [µM] | half-life ([1]; male, C57BL/6, ip, mouse plasma, 10 mg/kg intraperitoneal, read-out: T1/2 (converted)) [h]
CN1Cc2cc(-c3ccc(-c4cncc(NS(=O)(=O)c5ccccc5[N+](=O)[O-])c4)s3)ccc2C1=O [Compound 1, N-{5-[5-(2-methyl-1-oxo-2,3-dihydro-1H-isoindol-5-yl)-2-thienyl]-3-pyridinyl}-2-nitrobenzenesulfonamide] | 105 | 2.4 to 3.4 | 413 | 2.38 | 782 | 5440 | 2.85 | 1030 | 7320 | 2.85 | 1190 | 8940 | 3.36 | 0.77 | 5.37 ± 1.1 | – | – | –
O=C1NCc2ccc(-c3ccc(-c4cncc(NS(=O)(=O)c5ccc(F)cc5F)c4)s3)cc21 [Compound 7, 2,4-difluoro-N-{5-[5-(3-oxo-2,3-dihydro-1H-isoindol-5-yl)-2-thienyl]-3-pyridinyl}benzenesulfonamide] | – | – | – | – | – | – | – | – | – | – | – | – | – | – | 28.9 ± 6.7 | 1220 | 235 | 4.1
